Reference: paper PMC5218480 (PLoS ONE, 2017)

System: MV-4-11 cells
Test: Gene expression microarray analysis (Affymetrix PrimeView) and GSEA
Type: cell-based, human
Set-up: RFU PODN (11730768_x_at) / Fold change /veh PODN (11730768_x_at) / RFU LINC00158 (11744669_a_at) / Fold change /veh LINC00158 (11744669_a_at) / RFU DUSP10 (11751237_a_at) / Fold change /veh DUSP10 (11751237_a_at) / RFU ID3 (11757404_x_at) / Fold change /veh ID3 (11757404_x_at) / RFU PLEKHG5 (11737974_s_at) / Fold change /veh PLEKHG5 (11737974_s_at) / RFU LRRC4B (11730491_at) / Fold change /veh LRRC4B (11730491_at) / RFU GIMAP4 (11747438_a_at) / Fold change /veh GIMAP4 (11747438_a_at) / RFU KRT8 (11758183_x_at) / Fold change /veh KRT8 (11758183_x_at) / RFU CNN1 (11734310_a_at) / Fold change /veh CNN1 (11734310_a_at) / RFU VPS37D (11726825_at) / Fold change /veh VPS37D (11726825_at) / RFU C10orf10 (11716522_x_at) / Fold change /veh C10orf10 (11716522_x_at) / RFU KIR2DL2 /// KIR2DL4 /// KIR2DL5A /// KIR2DL5B /// KIR2DS1 /// KIR2DS2 /// KIR2DS3 /// KIR2DS4 /// KIR3DL3 /// KIR3DL3 /// KIR3DS1 (11738374_at) / Fold change /veh KIR2DL2 /// KIR2DL4 /// KIR2DL5A /// KIR2DL5B /// KIR2DS1 /// KIR2DS2 /// KIR2DS3 /// KIR2DS4 /// KIR3DL3 /// KIR3DL3 /// KIR3DS1 (11738374_at) / RFU C1QL1 (11718748_at) / Fold change /veh C1QL1 (11718748_at) / RFU TMPRSS4 (11747572_a_at) / Fold change /veh TMPRSS4 (11747572_a_at) / RFU HAMP (11756126_x_at) / Fold change /veh HAMP (11756126_x_at) / RFU RNFT2 (11725882_a_at) / Fold change /veh RNFT2 (11725882_a_at) / RFU NR4A2 (11747474_a_at) / Fold change /veh NR4A2 (11747474_a_at) / RFU ABCC12 (11746883_a_at) / Fold change /veh ABCC12 (11746883_a_at) / RFU TMEM136 (11760407_x_at) / Fold change /veh TMEM136 (11760407_x_at) / RFU CLDN22 /// WWC2 (11732394_at) / Fold change /veh CLDN22 /// WWC2 (11732394_at) / RFU HLA-DPB1 (11760878_x_at) / Fold change /veh HLA-DPB1 (11760878_x_at) / RFU SPINT1 (11716480_a_at) / Fold change /veh SPINT1 (11716480_a_at) / RFU GAP43 (11754022_s_at) / Fold change /veh GAP43 (11754022_s_at) / RFU A4GNT (11735810_at) / Fold change /veh A4GNT (11735810_at) / RFU PRB3 (11715151_x_at) / Fold change /veh PRB3 (11715151_x_at) / RFU TUBB4B (11761932_at) / Fold change /veh TUBB4B (11761932_at) / RFU CAPN14 (11732068_a_at) / Fold change /veh CAPN14 (11732068_a_at) / RFU TMCC2 (11721928_a_at) / Fold change /veh TMCC2 (11721928_a_at) / RFU IRGQ (11745062_a_at) / Fold change /veh IRGQ (11745062_a_at) / RFU FAM174B (11720279_a_at) / Fold change /veh FAM174B (11720279_a_at) / RFU TMPRSS4 (11748680_a_at) / Fold change /veh TMPRSS4 (11748680_a_at) / RFU FAM212B (11763350_a_at) / Fold change /veh FAM212B (11763350_a_at) / RFU PLEKHG5 (11743358_a_at) / Fold change /veh PLEKHG5 (11743358_a_at) / RFU ZSCAN30 (11745921_a_at) / Fold change /veh ZSCAN30 (11745921_a_at) / RFU CMKLR1 (11741424_a_at) / Fold change /veh CMKLR1 (11741424_a_at) / RFU LOC101060620 /// MAPK8IP1 (11723275_at) / Fold change /veh LOC101060620 /// MAPK8IP1 (11723275_at) / RFU SPTSSB (11747773_x_at) / Fold change /veh SPTSSB (11747773_x_at) / RFU PRSS12 (11739890_at) / Fold change /veh PRSS12 (11739890_at) / RFU BIN1 (11741810_x_at) / Fold change /veh BIN1 (11741810_x_at) / RFU WNT11 (11732464_a_at) / Fold change /veh WNT11 (11732464_a_at) / RFU C10orf10 (11716521_a_at) / Fold change /veh C10orf10 (11716521_a_at) / RFU C5orf56 (11738089_at) / Fold change /veh C5orf56 (11738089_at) / RFU CYB561 (11721691_x_at) / Fold change /veh CYB561 (11721691_x_at) / RFU ANKRD19P (11752326_a_at) / Fold change /veh ANKRD19P (11752326_a_at) / RFU OR2T12 /// OR2T33 /// OR2T8 (11738714_s_at) / Fold change /veh OR2T12 /// OR2T33 /// OR2T8 (11738714_s_at) / RFU VCAN (11748164_a_at) / Fold change /veh VCAN (11748164_a_at) / RFU JSRP1 (11732532_at) / Fold change /veh JSRP1 (11732532_at) / RFU KRTAP10-11 (11738290_x_at) / Fold change /veh KRTAP10-11 (11738290_x_at) / RFU MYO3A (11730013_a_at) / Fold change /veh MYO3A (11730013_a_at) / RFU EBF3 (11725865_a_at) / Fold change /veh EBF3 (11725865_a_at) / RFU CAMK2N1 (11719241_x_at) / Fold change /veh CAMK2N1 (11719241_x_at) / RFU C5orf56 (11738088_a_at) / Fold change /veh C5orf56 (11738088_a_at) / RFU OLFML3 (11715873_a_at) / Fold change /veh OLFML3 (11715873_a_at) / RFU LOC100653217 /// NTM (11731650_a_at) / Fold change /veh LOC100653217 /// NTM (11731650_a_at) / RFU MAPK11 (11762145_a_at) / Fold change /veh MAPK11 (11762145_a_at) / RFU FIZ1 (11724087_x_at) / Fold change /veh FIZ1 (11724087_x_at) / RFU OASL (11726364_x_at) / Fold change /veh OASL (11726364_x_at) / RFU SOX15 (11748057_x_at) / Fold change /veh SOX15 (11748057_x_at) / RFU CD79A (11719716_a_at) / Fold change /veh CD79A (11719716_a_at) / RFU HIST1H1D (11736915_at) / Fold change /veh HIST1H1D (11736915_at) / RFU CASKIN2 (11723855_a_at) / Fold change /veh CASKIN2 (11723855_a_at) / RFU LOC730098 (11760151_x_at) / Fold change /veh LOC730098 (11760151_x_at) / RFU OR4N2 (11742367_at) / Fold change /veh OR4N2 (11742367_at) / RFU PRRT2 (11749266_a_at) / Fold change /veh PRRT2 (11749266_a_at) / RFU SNX32 (11753110_a_at) / Fold change /veh SNX32 (11753110_a_at) / RFU CDHR5 (11726645_a_at) / Fold change /veh CDHR5 (11726645_a_at) / RFU RCAN1 (11760418_a_at) / Fold change /veh RCAN1 (11760418_a_at) / RFU FAM167A (11723789_a_at) / Fold change /veh FAM167A (11723789_a_at) / RFU FAM26E (11764081_at) / Fold change /veh FAM26E (11764081_at) / RFU ISYNA1 (11749810_s_at) / Fold change /veh ISYNA1 (11749810_s_at) / RFU ACY1 (11761880_at) / Fold change /veh ACY1 (11761880_at) / RFU 11764098_at / Fold change /veh 11764098_at / RFU SAMD14 (11745864_x_at) / Fold change /veh SAMD14 (11745864_x_at) / RFU NPB (11741838_a_at) / Fold change /veh NPB (11741838_a_at) / RFU TMPRSS6 (11731388_a_at) / Fold change /veh TMPRSS6 (11731388_a_at) / RFU KRTAP10-2 (11738614_at) / Fold change /veh KRTAP10-2 (11738614_at) / RFU ARHGAP8 /// PRR5-ARHGAP8 (11727945_x_at) / Fold change /veh ARHGAP8 /// PRR5-ARHGAP8 (11727945_x_at) / RFU KRTAP5-7 /// NADSYN1 (11734609_at) / Fold change /veh KRTAP5-7 /// NADSYN1 (11734609_at) / RFU RASL12 (11751679_a_at) / Fold change /veh RASL12 (11751679_a_at) / RFU CDKN2B (11736163_a_at) / Fold change /veh CDKN2B (11736163_a_at) / RFU PRF1 (11729649_at) / Fold change /veh PRF1 (11729649_at) / RFU, ZNF638 /// ZNF638-IT1 / Fold change vs veh, ZNF638 /// ZNF638-IT1 / RFU, PANK3 / Fold change vs veh, PANK3 / RFU, SH3YL1 / Fold change vs veh, SH3YL1 / RFU, ZEB2 / Fold change vs veh, ZEB2 / RFU, NRIP1 / Fold change vs veh, NRIP1 / RFU, PTTG1IP / Fold change vs veh, PTTG1IP / RFU, CAPN2 / Fold change vs veh, CAPN2 / RFU, MED14 / Fold change vs veh, MED14 / RFU, SNORA58 / Fold change vs veh, SNORA58 / RFU, C1orf63 / Fold change vs veh, C1orf63 / RFU, LRRFIP1 / Fold change vs veh, LRRFIP1 / RFU, NDUFAF7 / Fold change vs veh, NDUFAF7 / RFU, SLC12A2 / Fold change vs veh, SLC12A2 / RFU, IBTK / Fold change vs veh, IBTK / RFU, ESF1 / Fold change vs veh, ESF1 / Fold change vs veh, TMEM50B / RFU, TAOK1 / Fold change vs veh, TAOK1 / RFU, ACBD3 / Fold change vs veh, ACBD3 / RFU, TMA16 / Fold change vs veh, TMA16 / RFU, RWDD3 / Fold change vs veh, RWDD3 / RFU, BCAT1 / Fold change vs veh, BCAT1 / RFU, EDEM3 / Fold change vs veh, EDEM3 / RFU, TMEM33 / Fold change vs veh, TMEM33 / RFU, WDR75 / Fold change vs veh, WDR75 / RFU, AHCTF1 / Fold change vs veh, AHCTF1 / RFU, TFRC / Fold change vs veh, TFRC / RFU, ZDHHC17 / Fold change vs veh, ZDHHC17 / RFU, NOM1 / Fold change vs veh, NOM1 / RFU, ARL8B / Fold change vs veh, ARL8B / RFU, ZBTB11 / Fold change vs veh, ZBTB11 / RFU, TAMM41 / Fold change vs veh, TAMM41 / RFU, KIAA1704 /// LOC100996395 / Fold change vs veh, KIAA1704 /// LOC100996395 / RFU, ING1 / Fold change vs veh, ING1 / RFU, TRMT61B / Fold change vs veh, TRMT61B / RFU, FUBP3 / Fold change vs veh, FUBP3 / RFU, TP53 / Fold change vs veh, TP53 / RFU, TNKS2 / Fold change vs veh, TNKS2 / RFU, ZFP14 / Fold change vs veh, ZFP14 / RFU, ACTR2 / Fold change vs veh, ACTR2 / RFU, PPP3R1 / Fold change vs veh, PPP3R1 / RFU, PIK3R1 / Fold change vs veh, PIK3R1 / RFU, HNRNPA1 / Fold change vs veh, HNRNPA1 / RFU, RNF170 / Fold change vs veh, RNF170 / RFU, ZNF28 / Fold change vs veh, ZNF28 / RFU, RNGTT / Fold change vs veh, RNGTT / RFU, OGT / Fold change vs veh, OGT / RFU, BRD1 / Fold change vs veh, BRD1 / RFU, MARS / Fold change vs veh, MARS / RFU, ZNF655 / Fold change vs veh, ZNF655 / RFU, FAHD1 / Fold change vs veh, FAHD1 / RFU, BDP1 / Fold change vs veh, BDP1 / RFU, LRRCC1 / Fold change vs veh, LRRCC1 / RFU, ARID1A / Fold change vs veh, ARID1A / RFU, ZNF146 / Fold change vs veh, ZNF146 / RFU, ZNF330 / Fold change vs veh, ZNF330 / RFU, GPN3 / Fold change vs veh, GPN3 / RFU, C9orf123 / Fold change vs veh, C9orf123 / RFU, N4BP2L2 / Fold change vs veh, N4BP2L2 / RFU, ARFIP1 / Fold change vs veh, ARFIP1 / RFU, FAM179B / Fold change vs veh, FAM179B / RFU, BCL10 / Fold change vs veh, BCL10 / RFU, UHRF1BP1L / Fold change vs veh, UHRF1BP1L / RFU, BET1 / Fold change vs veh, BET1 / RFU, CNOT2 / Fold change vs veh, CNOT2 / RFU, ZNF268 / Fold change vs veh, ZNF268 / Fold change vs veh, ZNF507 / RFU, DGCR2 / Fold change vs veh, DGCR2 / RFU, WDSUB1 / Fold change vs veh, WDSUB1 / Fold change vs veh, HSP90B1 /// MIR3652 / RFU, ADSS / Fold change vs veh, ADSS / RFU, GK / Fold change vs veh, GK / RFU, ZNF148 / Fold change vs veh, ZNF148 / RFU, TAF9 / Fold change vs veh, TAF9 / RFU, SLC1A5 / Fold change vs veh, SLC1A5 / RFU, SLMO2 / Fold change vs veh, SLMO2 / RFU, ABCC4 / Fold change vs veh, ABCC4 / RFU, LOC101060439 /// RAP1B / Fold change vs veh, LOC101060439 /// RAP1B / RFU, RFX7 / Fold change vs veh, RFX7 / RFU, GTPBP10 / Fold change vs veh, GTPBP10 / RFU, CNEP1R1 / Fold change vs veh, CNEP1R1 / RFU, BIVM-ERCC5 /// ERCC5 / Fold change vs veh, BIVM-ERCC5 /// ERCC5 / RFU, ILF3 / Fold change vs veh, ILF3 / RFU 11762660_at / Fold change /veh 11762660_at / RFU VCAN (11757783_s_at) / Fold change /veh VCAN (11757783_s_at) / RFU DDX43 (11728927_at) / Fold change /veh DDX43 (11728927_at) / RFU KRT8 (11758188_x_at) / Fold change /veh KRT8 (11758188_x_at) / RFU NKD1 (11759106_at) / Fold change /veh NKD1 (11759106_at) / RFU SRD5A1 (11742802_a_at) / Fold change /veh SRD5A1 (11742802_a_at) / RFU TPSAB1 /// TPSB2 (11721975_s_at) / Fold change /veh TPSAB1 /// TPSB2 (11721975_s_at) / RFU GSTM3 (11746129_a_at) / Fold change /veh GSTM3 (11746129_a_at) / RFU IL23R (11737362_x_at) / Fold change /veh IL23R (11737362_x_at) / RFU TMEM51 (11727254_a_at) / Fold change /veh TMEM51 (11727254_a_at) / RFU PIWIL2 (11732686_x_at) / Fold change /veh PIWIL2 (11732686_x_at) / RFU ORM1 (11744905_x_at) / Fold change /veh ORM1 (11744905_x_at) / RFU CCDC152 (11743942_at) / Fold change /veh CCDC152 (11743942_at) / RFU ECM1 (11717891_a_at) / Fold change /veh ECM1 (11717891_a_at) / RFU IL23R (11748794_a_at) / Fold change /veh IL23R (11748794_a_at) / RFU TNFAIP8L3 (11732012_x_at) / Fold change /veh TNFAIP8L3 (11732012_x_at) / RFU MBOAT4 (11741988_at) / Fold change /veh MBOAT4 (11741988_at) / RFU 11764193_at / Fold change /veh 11764193_at / RFU TMEM53 (11763286_at) / Fold change /veh TMEM53 (11763286_at) / RFU MAGEB2 (11727129_at) / Fold change /veh MAGEB2 (11727129_at) / RFU TMEM200A (11744735_a_at) / Fold change /veh TMEM200A (11744735_a_at) / RFU CCDC152 (11751479_a_at) / Fold change /veh CCDC152 (11751479_a_at) / RFU FAM211A (11726209_a_at) / Fold change /veh FAM211A (11726209_a_at) / RFU RGS16 (11746705_a_at) / Fold change /veh RGS16 (11746705_a_at) / RFU VCAN (11755009_s_at) / Fold change /veh VCAN (11755009_s_at) / RFU RHOB (11743442_s_at) / Fold change /veh RHOB (11743442_s_at) / RFU RGS16 (11720943_a_at) / Fold change /veh RGS16 (11720943_a_at) / RFU RGS16 (11720944_at) / Fold change /veh RGS16 (11720944_at) / RFU, VPS4B / Fold change vs veh, VPS4B / RFU, CREB1 / Fold change vs veh, CREB1 / RFU, DNAJC13 / Fold change vs veh, DNAJC13 / RFU, GNAQ / Fold change vs veh, GNAQ / RFU, CDK5R1 / Fold change vs veh, CDK5R1 / RFU, ZRANB3 / Fold change vs veh, ZRANB3 / RFU, CUL4A / Fold change vs veh, CUL4A / RFU, CCNY / Fold change vs veh, CCNY / RFU, UFL1 / Fold change vs veh, UFL1 / RFU, COG3 / Fold change vs veh, COG3 / RFU, DIAPH2 / Fold change vs veh, DIAPH2 / RFU, SKA2 / Fold change vs veh, SKA2 / RFU, AFF3 / Fold change vs veh, AFF3 / RFU, LMF1 / Fold change vs veh, LMF1 / RFU, IPO11 / Fold change vs veh, IPO11 / RFU, DFFB / Fold change vs veh, DFFB / RFU, FOXP1 / Fold change vs veh, FOXP1 / RFU, CARD8 / Fold change vs veh, CARD8 / RFU, STRN3 / Fold change vs veh, STRN3 / RFU, ADK / Fold change vs veh, ADK / RFU, RASSF2 / Fold change vs veh, RASSF2 / RFU, WIPF1 / Fold change vs veh, WIPF1 / RFU, LARP1B / Fold change vs veh, LARP1B / RFU, RASA1 / Fold change vs veh, RASA1 / RFU, RB1 / Fold change vs veh, RB1 / RFU, PPFIA1 / Fold change vs veh, PPFIA1 / RFU, MAT2A / Fold change vs veh, MAT2A / RFU, CCT5 / Fold change vs veh, CCT5 / RFU, WDR92 / Fold change vs veh, WDR92 / RFU, CUX1 / Fold change vs veh, CUX1 / RFU, TTC7A / Fold change vs veh, TTC7A / RFU, TMEM135 / Fold change vs veh, TMEM135 / RFU, DEPTOR / Fold change vs veh, DEPTOR / RFU, CPM / Fold change vs veh, CPM / RFU, DNAJB6 / Fold change vs veh, DNAJB6 / RFU, CACNA2D3 / Fold change vs veh, CACNA2D3 / RFU, DTX4 / Fold change vs veh, DTX4 / RFU, TFCP2 / Fold change vs veh, TFCP2 / RFU, GMCL1 /// GMCL1P1 / Fold change vs veh, GMCL1 /// GMCL1P1 / RFU, AEBP2 / Fold change vs veh, AEBP2 / RFU, SNHG1 /// SNORD22 /// SNORD25 /// SNORD26 /// SNORD27 /// SNORD28 /// SNORD29 /// SNORD31 / Fold change vs veh, SNHG1 /// SNORD22 /// SNORD25 /// SNORD26 /// SNORD27 /// SNORD28 /// SNORD29 /// SNORD31 / Fold change (Aza/veh), C12orf56 (ProbeSet 11735607_a_at) / Fold change (ACY-1035/veh), C12orf56 (ProbeSet 11735607_a_at) / Fold change (Aza/veh), FGFR1OP (ProbeSet 11751329_s_at) / Fold change (ACY-1035/veh), FGFR1OP (ProbeSet 11751329_s_at) / Fold change (Aza/veh), VPS36 (ProbeSet 11739960_a_at) / Fold change (ACY-1035/veh), VPS36 (ProbeSet 11739960_a_at) / RFU SYPL1 (11715823_x_at) / Fold change /veh SYPL1 (11715823_x_at) / RFU IGFBP7 (11715501_s_at) / Fold change /veh IGFBP7 (11715501_s_at) / RFU REEP3 (11722064_at) / Fold change /veh REEP3 (11722064_at) / RFU IGLL1 (11728026_x_at) / Fold change /veh IGLL1 (11728026_x_at): dose or concentration left out as unconfirmed
Conditions: ProbeSet 11743567_s_at; LIST B

## Nc1ncn([C@@H]2O[C@H](CO)[C@@H](O)[C@H]2O)c(=O)n1 [azacitidine]
  Fold change vs veh, ACBD3: 1.04
